From US20170121315A1, “HETEROBICYCLICALLY SUBSTITUTED 4-OXOBUTANE ACID DERIVATIVES AND USE THEREOF” (priority 2014, published 2017)

Experiments:
Type in all cases: biochemical
MMP-2 = biological target: T1, MMP-2 (Homo sapiens, UniProt P08253); experiment: In vitro MMP-2 inhibition test; details: human MMP-2
T1 construct: purchased R&D Systems 902-MP
T1 sequence (P08253 110-660): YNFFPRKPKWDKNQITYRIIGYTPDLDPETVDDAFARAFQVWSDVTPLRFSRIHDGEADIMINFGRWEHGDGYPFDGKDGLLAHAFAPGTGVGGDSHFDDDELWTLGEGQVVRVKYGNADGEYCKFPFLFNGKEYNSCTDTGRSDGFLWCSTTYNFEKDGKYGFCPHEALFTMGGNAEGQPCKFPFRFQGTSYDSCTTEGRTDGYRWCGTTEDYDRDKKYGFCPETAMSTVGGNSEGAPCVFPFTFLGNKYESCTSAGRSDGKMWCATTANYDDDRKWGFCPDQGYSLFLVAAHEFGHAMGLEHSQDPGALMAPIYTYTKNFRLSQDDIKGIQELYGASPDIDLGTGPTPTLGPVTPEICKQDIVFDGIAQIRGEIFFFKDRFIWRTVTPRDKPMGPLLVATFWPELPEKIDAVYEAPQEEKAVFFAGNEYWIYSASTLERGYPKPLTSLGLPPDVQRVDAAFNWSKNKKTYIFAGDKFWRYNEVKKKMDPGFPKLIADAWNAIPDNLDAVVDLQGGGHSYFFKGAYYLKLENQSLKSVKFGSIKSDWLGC
Method in brief: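 APMA-activated recombinant MMP-2 (final e.g. 2 nM) with compound (e.g. 1 nM to 30 μM) in Tris/HCl pH 7.5 buffer with CaCl2, NaCl, Brij-35. Reaction started with quenched Mca-PLGL-Dpa(Dnp)-AR-NH2 substrate (final e.g. 10 μM); fluorescence (ex 320/em 410 nm) followed e.g. 120 min at 32 °C; IC50 at 50% signal.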

MMP-14 = biological target: T2, MMP-14 (Homo sapiens, UniProt P50281); experiment: In vitro MMP-14 inhibition test; details: human MMP-14
T2 construct: purchased R&D Systems 918-MP
Method in brief: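 Recombinant MMP-14, furin-activated, at e.g. 0.5 nM final in 50 mM Tris/HCl pH 7.5, 10 mM CaCl2, 150 mM NaCl, 0.05% Brij-35. Started with quenched Mca-Lys-Pro-Leu-Gly-Leu-Dpa(Dnp)-Ala-Arg-NH2 (e.g. 5 μM final); fluorescence (ex 320/em 410 nm) followed e.g. 120 min at 32 °C. IC50 at 50% signal.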

MMP-10 = biological target: T3, MMP-10 (Homo sapiens, UniProt P09238); experiment: In vitro MMP-10 inhibition test; details: human MMP-10
T3 construct: purchased R&D Systems 910-MP
T3 sequence (P09238 99-476): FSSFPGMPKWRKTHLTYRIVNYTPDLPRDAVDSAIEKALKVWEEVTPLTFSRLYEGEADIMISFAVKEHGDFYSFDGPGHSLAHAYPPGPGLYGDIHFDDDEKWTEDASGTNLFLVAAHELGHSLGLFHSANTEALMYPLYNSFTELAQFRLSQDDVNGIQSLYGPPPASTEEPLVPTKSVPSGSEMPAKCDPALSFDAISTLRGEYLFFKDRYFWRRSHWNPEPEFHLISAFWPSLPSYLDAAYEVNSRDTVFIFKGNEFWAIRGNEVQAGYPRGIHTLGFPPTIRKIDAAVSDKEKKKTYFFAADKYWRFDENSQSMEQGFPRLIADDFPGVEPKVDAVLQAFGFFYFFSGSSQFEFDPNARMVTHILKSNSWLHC
Method in brief: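 APMA-activated recombinant MMP-10 (e.g. 2 nM final) with compound in Tris/HCl pH 7.5, CaCl2, NaCl, Brij-35 buffer; reaction started with quenched Mca/Dnp peptide substrate (e.g. 10 μM final). Fluorescence (ex 320/em 410 nm) followed e.g. 120 min at 32 °C; IC50 at 50% signal.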

[1] = biological target: T4, human macrophage elastase (HME/hMMP-12) (Homo sapiens, UniProt P39900); experiment: In vitro HME inhibition test (standard or high-sensitivity); details: in some cases mean values, rounded to two significant figures
T4 construct: purchased R&D Systems 917-MP
T4 sequence (P39900 106-470): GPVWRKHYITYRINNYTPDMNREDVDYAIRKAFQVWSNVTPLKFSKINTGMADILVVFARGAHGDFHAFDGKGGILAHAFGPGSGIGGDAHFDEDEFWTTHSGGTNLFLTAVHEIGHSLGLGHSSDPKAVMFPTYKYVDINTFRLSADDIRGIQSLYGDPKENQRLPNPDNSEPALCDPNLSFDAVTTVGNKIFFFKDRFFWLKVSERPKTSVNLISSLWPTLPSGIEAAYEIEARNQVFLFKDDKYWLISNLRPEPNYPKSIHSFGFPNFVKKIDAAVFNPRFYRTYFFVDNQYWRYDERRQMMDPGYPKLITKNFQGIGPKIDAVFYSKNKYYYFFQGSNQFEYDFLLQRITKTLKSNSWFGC
Method in brief: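 Autoactivated HME (0.5 nM; high-sensitivity format 0.05 nM, ~16 h) with 5 μM quenched Mca-PLGLEEA-Dap(Dnp)-NH2 substrate in HEPES pH 7.4, NaCl, CaCl2, ZnCl2, EDTA, Brij buffer, 2 h at 37° C. Fluorescence at ex 323/em 393 nm; IC50 from signal versus concentration.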

Row | IC50 (MMP-2) [nM] | IC50 (MMP-14) [nM] | IC50 (MMP-10) [nM] | IC50 [1] [nM] | Structure (SMILES)
1 | 6100 | 31000 | 30000 | 0.99 | O=C(CC(CCn1nnc2ccccc2c1=O)C(=O)O)c1cc2cc(OCc3ccccc3)ccc2o1 (single isomer, unassigned; (+)) [Example 30, (+)-4-[5-(Benzyloxy)-1-benzofur-2-yl]-4-oxo-2-[2-(4-oxo-1,2,3-benzotriazin-3(4H)-yl)ethyl]butanoic acid]
2 | 490 | 7900 | 14000 | 1.1 | NC(=O)c1cccc(COc2ccc3oc(C(=O)CC(CCn4nnc5ccccc5c4=O)C(=O)O)cc3c2)c1 (single isomer, unassigned; (+)) [Example 34, (+)-4-{5-[(3-Carbamoylbenzyl)oxy]-1-benzofur-2-yl}-4-oxo-2-[2-(4-oxo-1,2,3-benzotriazin-3(4H)-yl)ethyl]butanoic acid]
3 | 2900 | > 40000 | 28000 | 1 | CCCCCCCOc1ccc2cc(C(=O)CC(CCn3nnc4ccccc4c3=O)C(=O)O)oc2c1 (single isomer, unassigned; (+)) [Example 69, (+)-4-[6-(Heptyloxy)-1-benzofur-2-yl]-4-oxo-2-[2-(4-oxo-1,2,3-benzotriazin-3(4H)-yl)ethyl]butanoic acid acid]
4 | 490 | 1900 | 12000 | 0.46 | O=C(CC(CCn1nnc2ccccc2c1=O)C(=O)O)c1coc2cc(OCC3CCCC3)ccc12 (single isomer, unassigned; (+)) [Example 80, (+)-4-[6-(Cyclopentylmethoxy)-1-benzofur-3-yl]-4-oxo-2-[2-(4-oxo-1,2,3-benzotriazin-3(4H)-yl)ethyl]butanoic acid]
5 | 170 | 2500 | 6800 | 0.089 | O=C(CC(CCn1nnc2ccccc2c1=O)C(=O)O)c1coc2cc(OCC3CCCCC3)ccc12 (single isomer, unassigned; (+)) [Example 82, (+)-4-[6-(Cyclohexylmethoxy)-1-benzofur-3-yl]-4-oxo-2-[2-(4-oxo-1,2,3-benzotriazin-3(4H)-yl)ethyl]butanoic acid]
6 | 140 | 4000 | 11000 | 0.18 | CCCCCCOc1ccc2c(C(=O)CC(CCn3nnc4ccccc4c3=O)C(=O)O)coc2c1 (single isomer, unassigned; (+)) [Example 100, (+)-4-[6-(Hexyloxy)-1-benzofur-3-yl]-4-oxo-2-[2-(4-oxo-1,2,3-benzotriazin-3(4H)-yl)ethyl]butanoic acid]
7 | 220 | 2800 | 2500 | 2.2 | O=C(CC(CCn1nnc2ccccc2c1=O)C(=O)O)c1cc2ccc(OCC3CC3)cc2s1 (single isomer, unassigned; (+)) [Example 112, (+)-4-[6-(Cyclopropylmethoxy)-1-benzothiophen-2-yl]-4-oxo-2-[2-(4-oxo-1,2,3-benzotriazin-3(4H)-yl)ethyl]butanoic acid]
8 | 270 | 3500 | 9000 | 0.16 | O=C(C[C@H](CCn1nnc2ccccc2c1=O)C(=O)O)c1noc2cc(OCC3CCOCC3)ccc12 (single isomer, unassigned; enantiomer 2) [Example 135]
9 | 1700 | 2600 | 340 | 0.063 | O=C(O)[C@@H]1[C@@H](Cn2nnc3ccc(C(F)(F)F)cc3c2=O)CC[C@H]1C(=O)c1cc2cc(OCCc3ccccc3)ccc2o1 (single isomer, unassigned; enantiomer 2) [Example 159, (+)-(1RS,2SR,5RS)-2-{[4-Oxo-6-(trifluoromethyl)-1,2,3-benzotriazin-3(4H)-yl]methyl}-5-{[5-(2-phenylethoxy)-1-benzofur-2-yl]carbonyl}cyclopentanecarboxylic acid (enantiomer 2)]

Row | Structure (SMILES) | IC50 (MMP-2) [nM] | IC50 (MMP-14) [nM] | IC50 (MMP-10) [nM] | IC50 [1] [nM]
10 | O=C(CC(CCn1nnc2ccccc2c1=O)C(=O)O)c1cc2cc(OCCCC(F)(F)F)ccc2o1 (single isomer, unassigned; enantiomer 2) [Example 13, (+)-4-Oxo-2-[2-(4-oxo-1,2,3-benzotriazin-3(4H)-yl)ethyl]-4-[5-(4,4,4-trifluorobutoxy)-1-benzofur-2-yl]butanoic acid (enantiomer 2)] | 1300 | 17000 | 15000 | 6.1
